# Data taken from US6399629B1, “Efflux pump inhibitors” (priority 1998, dated 2002).
# Tested on: Pseudomonas aeruginosa PAM1001
# Experiment: checkerboard assay (broth microdilution): levofloxacin MIC in presence of efflux pump inhibitor
# Type: cell-based
# Method: For compounds labeled with the prefix ‘M’, potentiation effect is observed by the reduction of the minimum inhibitory concentration of levofloxacin in the presence of the experimental efflux pump inhibitor. The activity of efflux pump inhibitors (EPI) in combination with fluoroquinolones, such as levofloxacin, is assessed by the checkerboard assay (Antimicrobial Combinations. In Antibiotics in Laboratory Medicine, Ed. Victor Lorian, M.D., Fourth edition, 1996, pp 333-338) using broth microdilution method performed as recommended by the National Committee for Clinical Laboratory Standards (1997). Methods for Dilution of Antimicrobial Susceptibility Tests for Bacteria That Grow Aerobically—Fourth Edition; Approved Standard. NCCLS Document M7-A4, Vol 17 No.2). The test organism used is Pseudomonas aeruginosa PAM1001. […] The compounds tabulated below are representative of the described invention.
# In these assays, multiple dilutions of two drugs, namely the EPI and levofloxacin, are being tested, alone and in combination, at concentrations equal to, above and below their respective minimal inhibitory concentrations (MICs). In the case of EPI, most of these compounds are devoid of intrinsic antimicrobial activity and are tested up to the maximum concentration of 40 μg/mL. The MIC of levofloxacin against P. aeruginosa PAM1001 is 4 μg/mL.
# The EPI tested are readily soluble in water and stock solutions are prepared at a final concentration of 2 mg/mL. Stock solutions are further diluted, according to the needs of a particular assay, in Mueller Hinton Broth (MHB). Stock solution can be stored at −80° C. Quinolones are solubilized according to the instructions of the manufacturers, at a concentration of 1 mg/mL. They are then further diluted in MHB. Stock solution can be stored at −80° C.
# The checkerboard assay is performed in microtiter plates. Levofloxacin is diluted in the x axis, each column containing a single concentration of levofloxacin. The EPI is diluted in the y axis, each row containing an equal concentration of EPI. The result of these manipulations is that each well of the microtiter plate contains a unique combination of concentrations of the two agents. Each EPI are tested independently.
# The assay is performed in MHB with a final bacterial inoculum of 5×10^5 CFU/mL (from an early-log phase culture). Microtiter plates are incubated during 20 h at 35° C. and are read using a microtiter plate reader (Molecular Devices) at 650 nm as well as visual observation using a microtiterplate reading mirror.
Compound,"Levofloxacin MIC Against P. aerugiuosa PAM1001 in Presence of Efflux Pump Inhibitor (EPI), Minimum Inhibitory Concentration (EPI Conc. 0 μg/mL)","Levofloxacin MIC Against P. aerugiuosa PAM1001 in Presence of Efflux Pump Inhibitor (EPI), Minimum Inhibitory Concentration (EPI Conc. 0.625 μg/mL)","Levofloxacin MIC Against P. aerugiuosa PAM1001 in Presence of Efflux Pump Inhibitor (EPI), Minimum Inhibitory Concentration (EPI Conc. 1.25 μg/mL)","Levofloxacin MIC Against P. aerugiuosa PAM1001 in Presence of Efflux Pump Inhibitor (EPI), Minimum Inhibitory Concentration (EPI Conc. 2.5 μg/mL)","Levofloxacin MIC Against P. aerugiuosa PAM1001 in Presence of Efflux Pump Inhibitor (EPI), Minimum Inhibitory Concentration (EPI Conc. 5 μg/ mL)","Levofloxacin MIC Against P. aerugiuosa PAM1001 in Presence of Efflux Pump Inhibitor (EPI), Minimum Inhibitory Concentration (EPI Conc. 10 μg/mL)","Levofloxacin MIC Against P. aerugiuosa PAM1001 in Presence of Efflux Pump Inhibitor (EPI), Minimum Inhibitory Concentration (EPI Conc. 20 μg/mL)","Levofloxacin MIC Against P. aerugiuosa PAM1001 in Presence of Efflux Pump Inhibitor (EPI), Minimum Inhibitory Concentration (EPI Conc. 40 μg/mL)"
NCC(=O)N[C@H]1CN[C@@H](C(=O)N(CCc2ccccc2)CC(=O)Nc2cnc3ccccc3c2)C1 [Compound M46],4 µg/mL,4 µg/mL,4 µg/mL,4 µg/mL,4 µg/mL,4 µg/mL,1 µg/mL,0.5 µg/mL
"NCC(=O)N[C@H]1CN[C@H](C(=O)N[C@H](CCc2ccccc2)COc2ccc3ccccc3n2)C1 [Compound M54, (2S,rR)-4-(2-Aminoacetamido)-N-[(1R)-3-phenyl-1-[(2-quinolyloxy)methyl]propyl]-2-pyrrolidinecarboxamide]",4 µg/mL,4 µg/mL,4 µg/mL,4 µg/mL,4 µg/mL,0.125 µg/mL,0.06 µg/mL,0.03 µg/mL
"NCC(=O)N[C@@H]1CN[C@@H](C(=O)NC(Cc2ccccc2)C(=O)Nc2cnc3ccccc3c2)C1 (stereo partly drawn) [Compound M41, (2R,4S0-4-(2-Aminoacetamideo)-N-(2-phenylethyl)-N-(3-quinolylcarbamoyl)ethyl]-2-pyrrolidinecarboxamide]",4 µg/mL,4 µg/mL,2 µg/mL,2 µg/mL,0.25 µg/mL,0.008 µg/mL,0.008 µg/mL,0.008 µg/mL
"(2R,4R)-4-(Aminomethyl)-N-(2-phenylethyl)-N-(3-quinolylcarbamoyl)ethyl]-2-pyrrolidinecarboxamide [Compound M45]",4 µg/mL,4 µg/mL,4 µg/mL,1 µg/mL,0.50 µg/mL,0.03 µg/mL,0.015 µg/mL,0.015 µg/mL
"Cc1ccc2ncc(C(=O)NC[C@@H](CCc3ccccc3)NC(=O)[C@H]3C[C@H](CN)CN3)cc2c1 [Compound M63, (2R,4R)-4-(Aminomethyl)-N-[(1R)-3-phenyl-1-[(6-methyl-3-quinolylcarboxamido)methyl]propyl]-2-pyrrolidinecaroxamide]",4 µg/mL,4 µg/mL,4 µg/mL,4 µg/mL,2 µg/mL,1 µg/mL,0.008 µg/mL,0.015 µg/mL
"Cc1cc2nc(C(O)[C@@H](CCc3ccccc3)NC(=O)[C@H]3C[C@H](NC(=O)[C@@H](C)N)CN3)oc2cc1C (mixture of isomers) [Compound M66, (2R,4S)-4-[(2R)-2-Aminopropionamido]-N-[(1R)-1-[(RS)-(5,6-dimethyl-2-benzoxaaolyl)hydroxymethyl]-3-phenylpropyl]-2-pyrrolidinecarboxamide]",4 µg/mL,4 µg/mL,4 µg/mL,4 µg/mL,4 µg/mL,0.125 µg/mL,0.015 µg/mL,0.015 µg/mL
"CC(C)(C)c1ccc2ncc(NC(=O)[C@@H]3C[C@@H](OCCN)CN3)cc2c1 [Compound M92, (2S,4R)-4-(2-Aminoethyloxy)-N-(6-(1,1-dimethyl)ethyl-3-quinolyl)-2-pyrrolidinecarboxamide]",4 µg/mL,4 µg/mL,4 µg/mL,4 µg/mL,4 µg/mL,2 µg/mL,0.06 µg/mL,0.008 µg/mL
"Cc1cc2nc(C(O)[C@@H](CCc3ccccc3)NC(=O)[C@@H]3C[C@@H](NC(=O)[C@@H](C)N)CN3)oc2cc1C (mixture of isomers) [Compound M65, (2S,4R)-4-[(2R)-2-Aminopropionamido]-N-[(1R)-1-[(RS)-(5,6-dimethyl-2-benzoxaaolyl)hydroxymethyl]-3-phenylpropyl]-2-pyrrolidinecarboxamide]",4 µg/mL,4 µg/mL,4 µg/mL,4 µg/mL,4 µg/mL,4 µg/mL,0.06 µg/mL,0.015 µg/mL
CC(C)C[C@@H](NC(=O)[C@@H]1C[C@@H](NC(=O)CN)CN1)C(=O)Nc1cnc2ccccc2c1 [Compound M8],2 µg/mL,2 µg/mL,2 µg/mL,2 µg/mL,2 µg/mL,2 µg/mL,1 µg/mL,0.25 µg/mL
